The results in this text go back to PMC7026418, “The kinase polypharmacology landscape of clinical PARP inhibitors” (Scientific Reports, 2020).

Targets include GRK4 (Homo sapiens, UniProt P32298); IRAK1 (Homo sapiens, UniProt P51617); PIK3CA(C420R) (Homo sapiens, UniProt P42336, C420R); PIK3CB (Homo sapiens, UniProt P42338); PIK3CG (Homo sapiens, UniProt P48736); ROCK1 (Homo sapiens, UniProt Q13464); TNIK (Homo sapiens, UniProt Q9UKE5).
Test in all cases: biochemical
What all share (parameters): DiscoveRx KINOMEscan active site-directed competition binding; percent of control kinase bound to immobilised ligand

A further experiment concerns the target T1, CAMK4 (Homo sapiens, UniProt Q16566).
T1 sequence (Q16566 1-473): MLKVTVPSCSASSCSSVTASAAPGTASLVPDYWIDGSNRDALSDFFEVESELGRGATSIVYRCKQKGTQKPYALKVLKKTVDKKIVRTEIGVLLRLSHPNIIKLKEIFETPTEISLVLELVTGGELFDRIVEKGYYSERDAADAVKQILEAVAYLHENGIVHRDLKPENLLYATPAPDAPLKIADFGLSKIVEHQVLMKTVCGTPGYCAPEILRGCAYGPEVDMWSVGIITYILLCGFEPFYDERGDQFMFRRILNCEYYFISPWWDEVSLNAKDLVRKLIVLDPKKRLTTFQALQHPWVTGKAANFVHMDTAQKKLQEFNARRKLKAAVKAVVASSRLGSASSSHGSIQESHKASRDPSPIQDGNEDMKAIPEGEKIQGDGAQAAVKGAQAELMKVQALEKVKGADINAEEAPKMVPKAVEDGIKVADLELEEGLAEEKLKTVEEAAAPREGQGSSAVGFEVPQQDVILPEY

A further experiment addresses T2, DMPK (Homo sapiens, UniProt Q09013).
T2 sequence (Q09013 1-629): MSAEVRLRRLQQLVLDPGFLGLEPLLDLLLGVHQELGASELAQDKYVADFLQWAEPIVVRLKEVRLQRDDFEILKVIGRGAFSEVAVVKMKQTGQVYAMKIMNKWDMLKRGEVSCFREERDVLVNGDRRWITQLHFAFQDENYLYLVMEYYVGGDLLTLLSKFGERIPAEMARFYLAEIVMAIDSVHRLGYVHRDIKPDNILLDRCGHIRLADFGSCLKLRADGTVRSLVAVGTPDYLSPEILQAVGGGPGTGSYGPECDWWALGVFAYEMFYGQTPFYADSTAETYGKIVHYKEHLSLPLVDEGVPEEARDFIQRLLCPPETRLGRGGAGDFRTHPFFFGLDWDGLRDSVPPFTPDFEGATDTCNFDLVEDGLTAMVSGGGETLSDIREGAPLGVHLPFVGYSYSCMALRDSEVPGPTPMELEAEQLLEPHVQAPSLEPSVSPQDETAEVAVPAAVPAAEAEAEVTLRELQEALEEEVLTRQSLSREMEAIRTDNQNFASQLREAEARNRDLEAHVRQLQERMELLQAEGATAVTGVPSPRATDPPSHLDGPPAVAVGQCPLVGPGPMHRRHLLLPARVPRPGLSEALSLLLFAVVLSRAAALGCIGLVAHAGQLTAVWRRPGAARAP

Another experiment deals with T3, MAK (Homo sapiens, UniProt P20794).
T3 sequence (P20794 1-623): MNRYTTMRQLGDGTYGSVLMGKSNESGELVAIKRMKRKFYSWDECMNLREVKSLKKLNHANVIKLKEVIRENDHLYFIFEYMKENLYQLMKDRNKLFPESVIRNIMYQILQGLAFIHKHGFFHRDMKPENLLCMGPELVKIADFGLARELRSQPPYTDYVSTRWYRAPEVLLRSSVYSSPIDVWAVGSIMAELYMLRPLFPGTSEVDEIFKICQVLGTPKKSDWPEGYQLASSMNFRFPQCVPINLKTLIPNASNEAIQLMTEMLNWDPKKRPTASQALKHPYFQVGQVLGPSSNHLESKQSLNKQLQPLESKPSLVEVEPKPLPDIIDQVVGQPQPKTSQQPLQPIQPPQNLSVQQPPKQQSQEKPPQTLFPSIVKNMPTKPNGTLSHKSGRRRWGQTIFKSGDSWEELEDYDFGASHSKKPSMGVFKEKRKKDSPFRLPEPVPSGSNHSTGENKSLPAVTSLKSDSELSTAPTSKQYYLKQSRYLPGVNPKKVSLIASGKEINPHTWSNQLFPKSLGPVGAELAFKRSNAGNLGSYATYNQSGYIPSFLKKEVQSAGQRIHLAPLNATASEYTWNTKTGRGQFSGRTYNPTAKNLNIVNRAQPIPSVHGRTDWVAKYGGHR

For a further experiment, the target named is T4, PCTK3 (Homo sapiens, UniProt Q07002).
T4 construct: gene CDK18

The mark [1] stands for this setting: read-out: Rucaparib / %Ctrl @ 10000nM, binding competition, % of control.
[2] abbreviates: read-out: Talazoparib (BMN 673) / %Ctrl @ 10000nM.
Where [3] appears, read: read-out: Niraparib (MK-4827) / %Ctrl @ 10000nM.
The mark [4] stands for this setting: read-out: Olaparib / %Ctrl @ 10000nM.

SMILES strings stand for the structures. Where two headings read alike, the source gives them in different places.

Chain of GRK4 (P32298 whole entry): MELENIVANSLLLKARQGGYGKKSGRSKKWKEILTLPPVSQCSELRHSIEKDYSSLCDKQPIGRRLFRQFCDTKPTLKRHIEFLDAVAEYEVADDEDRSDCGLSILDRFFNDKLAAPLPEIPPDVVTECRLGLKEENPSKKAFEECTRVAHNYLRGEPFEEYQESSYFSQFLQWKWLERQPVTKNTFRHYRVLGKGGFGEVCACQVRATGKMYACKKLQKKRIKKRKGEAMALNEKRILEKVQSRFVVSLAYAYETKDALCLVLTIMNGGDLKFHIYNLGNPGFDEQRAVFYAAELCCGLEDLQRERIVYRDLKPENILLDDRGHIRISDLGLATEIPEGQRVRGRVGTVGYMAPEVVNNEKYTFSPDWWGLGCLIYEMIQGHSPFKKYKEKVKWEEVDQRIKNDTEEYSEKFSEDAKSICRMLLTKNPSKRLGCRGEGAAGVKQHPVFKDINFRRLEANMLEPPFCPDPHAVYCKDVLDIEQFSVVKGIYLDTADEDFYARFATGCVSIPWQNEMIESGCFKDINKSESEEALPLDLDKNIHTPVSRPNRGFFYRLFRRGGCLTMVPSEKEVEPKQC
Chain of IRAK1 (P51617 whole entry): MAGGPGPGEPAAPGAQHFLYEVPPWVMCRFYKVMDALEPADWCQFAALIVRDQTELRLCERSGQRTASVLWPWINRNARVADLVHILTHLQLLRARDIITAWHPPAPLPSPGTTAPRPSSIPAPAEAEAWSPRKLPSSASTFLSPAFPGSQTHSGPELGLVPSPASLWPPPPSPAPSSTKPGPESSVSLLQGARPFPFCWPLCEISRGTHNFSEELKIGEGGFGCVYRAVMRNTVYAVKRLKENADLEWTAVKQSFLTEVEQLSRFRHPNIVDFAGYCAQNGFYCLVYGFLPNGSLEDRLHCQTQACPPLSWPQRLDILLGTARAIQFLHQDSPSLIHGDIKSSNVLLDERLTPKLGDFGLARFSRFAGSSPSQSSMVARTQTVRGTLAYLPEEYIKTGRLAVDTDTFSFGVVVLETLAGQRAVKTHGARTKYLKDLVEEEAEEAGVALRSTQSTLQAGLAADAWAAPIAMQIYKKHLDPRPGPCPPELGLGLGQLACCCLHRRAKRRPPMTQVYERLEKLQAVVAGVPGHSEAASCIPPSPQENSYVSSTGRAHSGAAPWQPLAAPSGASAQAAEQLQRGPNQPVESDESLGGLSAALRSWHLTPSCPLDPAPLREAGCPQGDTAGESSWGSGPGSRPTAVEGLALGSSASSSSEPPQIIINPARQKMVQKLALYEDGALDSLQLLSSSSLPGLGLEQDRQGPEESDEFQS
T4 sequence (Q07002 whole entry): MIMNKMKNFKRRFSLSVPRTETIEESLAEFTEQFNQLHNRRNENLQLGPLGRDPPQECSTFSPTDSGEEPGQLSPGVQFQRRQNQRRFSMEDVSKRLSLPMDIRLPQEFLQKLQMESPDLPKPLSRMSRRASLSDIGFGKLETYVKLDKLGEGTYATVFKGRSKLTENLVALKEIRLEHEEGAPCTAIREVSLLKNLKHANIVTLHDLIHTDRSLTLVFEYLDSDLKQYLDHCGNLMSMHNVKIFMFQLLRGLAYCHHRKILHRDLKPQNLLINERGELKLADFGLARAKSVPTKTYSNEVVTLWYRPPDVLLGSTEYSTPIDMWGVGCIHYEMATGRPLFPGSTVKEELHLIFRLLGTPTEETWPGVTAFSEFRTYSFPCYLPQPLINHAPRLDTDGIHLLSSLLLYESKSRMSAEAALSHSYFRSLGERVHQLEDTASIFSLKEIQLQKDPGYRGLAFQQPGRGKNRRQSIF
Chain of TNIK (Q9UKE5 whole entry): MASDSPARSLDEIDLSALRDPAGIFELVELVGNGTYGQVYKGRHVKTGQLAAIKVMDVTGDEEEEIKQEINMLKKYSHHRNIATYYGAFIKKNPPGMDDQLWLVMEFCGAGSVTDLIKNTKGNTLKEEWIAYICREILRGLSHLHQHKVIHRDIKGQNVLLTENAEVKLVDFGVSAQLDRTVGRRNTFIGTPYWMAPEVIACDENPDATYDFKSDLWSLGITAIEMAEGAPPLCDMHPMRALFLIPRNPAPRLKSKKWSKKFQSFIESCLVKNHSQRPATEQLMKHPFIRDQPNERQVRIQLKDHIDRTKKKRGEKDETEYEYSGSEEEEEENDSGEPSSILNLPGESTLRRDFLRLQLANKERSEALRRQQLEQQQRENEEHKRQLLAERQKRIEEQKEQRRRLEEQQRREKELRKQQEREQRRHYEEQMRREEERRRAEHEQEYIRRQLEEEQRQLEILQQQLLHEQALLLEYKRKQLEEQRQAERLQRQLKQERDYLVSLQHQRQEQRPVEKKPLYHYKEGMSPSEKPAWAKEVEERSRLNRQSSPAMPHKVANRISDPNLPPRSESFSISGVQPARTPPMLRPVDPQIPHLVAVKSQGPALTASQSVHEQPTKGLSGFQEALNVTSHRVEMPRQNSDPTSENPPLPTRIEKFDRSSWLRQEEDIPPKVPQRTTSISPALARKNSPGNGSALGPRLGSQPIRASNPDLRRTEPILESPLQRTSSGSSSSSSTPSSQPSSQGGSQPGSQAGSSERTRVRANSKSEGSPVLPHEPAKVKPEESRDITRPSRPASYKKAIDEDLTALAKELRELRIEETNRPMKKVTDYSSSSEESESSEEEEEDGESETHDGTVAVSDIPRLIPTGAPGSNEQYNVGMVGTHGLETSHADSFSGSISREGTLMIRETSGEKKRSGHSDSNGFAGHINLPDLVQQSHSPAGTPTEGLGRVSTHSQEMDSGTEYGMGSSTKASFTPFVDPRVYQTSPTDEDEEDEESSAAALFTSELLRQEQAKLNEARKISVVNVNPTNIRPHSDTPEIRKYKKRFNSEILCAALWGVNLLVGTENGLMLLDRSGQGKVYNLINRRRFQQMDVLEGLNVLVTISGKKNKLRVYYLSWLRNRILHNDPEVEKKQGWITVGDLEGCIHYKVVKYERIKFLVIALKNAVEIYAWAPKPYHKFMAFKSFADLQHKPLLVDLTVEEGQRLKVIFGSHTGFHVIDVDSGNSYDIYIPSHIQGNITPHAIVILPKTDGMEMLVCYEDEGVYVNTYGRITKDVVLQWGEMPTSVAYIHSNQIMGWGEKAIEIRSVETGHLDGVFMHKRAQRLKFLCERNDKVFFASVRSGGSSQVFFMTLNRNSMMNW
Chain of PIK3CB (P42338 whole entry): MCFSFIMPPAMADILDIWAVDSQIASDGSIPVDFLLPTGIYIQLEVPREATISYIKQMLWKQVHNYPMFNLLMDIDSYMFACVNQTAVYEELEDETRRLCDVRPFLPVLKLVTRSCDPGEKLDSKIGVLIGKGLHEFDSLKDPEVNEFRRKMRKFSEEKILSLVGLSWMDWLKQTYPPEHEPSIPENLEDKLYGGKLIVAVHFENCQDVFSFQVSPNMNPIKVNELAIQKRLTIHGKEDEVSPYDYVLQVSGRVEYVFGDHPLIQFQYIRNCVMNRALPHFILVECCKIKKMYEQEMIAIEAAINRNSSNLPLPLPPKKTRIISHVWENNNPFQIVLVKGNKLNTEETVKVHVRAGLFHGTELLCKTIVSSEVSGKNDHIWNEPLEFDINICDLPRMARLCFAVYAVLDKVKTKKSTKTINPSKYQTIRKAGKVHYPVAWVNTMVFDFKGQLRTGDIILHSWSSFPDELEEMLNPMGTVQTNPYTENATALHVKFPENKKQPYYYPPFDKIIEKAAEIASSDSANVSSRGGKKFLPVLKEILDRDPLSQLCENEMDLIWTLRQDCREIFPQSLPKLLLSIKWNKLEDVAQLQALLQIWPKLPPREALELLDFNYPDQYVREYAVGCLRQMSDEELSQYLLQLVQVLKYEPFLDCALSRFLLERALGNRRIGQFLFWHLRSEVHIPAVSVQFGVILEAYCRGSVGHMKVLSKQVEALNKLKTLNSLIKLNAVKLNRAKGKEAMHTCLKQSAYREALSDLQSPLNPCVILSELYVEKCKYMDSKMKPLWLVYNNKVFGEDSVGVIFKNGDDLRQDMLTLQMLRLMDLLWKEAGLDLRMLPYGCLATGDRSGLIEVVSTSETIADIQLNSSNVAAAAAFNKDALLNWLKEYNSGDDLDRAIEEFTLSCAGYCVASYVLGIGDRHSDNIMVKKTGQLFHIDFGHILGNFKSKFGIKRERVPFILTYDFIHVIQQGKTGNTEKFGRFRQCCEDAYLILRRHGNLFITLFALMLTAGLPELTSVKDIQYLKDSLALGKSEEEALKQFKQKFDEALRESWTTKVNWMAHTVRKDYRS

Take `CNCc1ccc(-c2[nH]c3cc(F)cc4c3c2CCNC4=O)cc1` [Rucaparib]: the percent of control binding at 10 µM on CAMK4 (setting [1]) came out at 94%; at DMPK (setting [1]), 100%; at GRK4 (setting [1]) it was 100%; at IRAK1 (setting [1]) it was 19%; at MAK (setting [1]), 81%; at PCTK3 (setting [1]), 69%. Moreover, the percent of control binding at 10 µM on PIK3CA(C420R) (setting [1]) amounted to 74%; on PIK3CB (setting [1]), 83%; at PIK3CG (setting [1]) it was 88%; on ROCK1 (setting [1]), 85%; at TNIK (setting [1]), 22%.
Take `Cn1ncnc1[C@H]1c2n[nH]c(=O)c3cc(F)cc(c23)N[C@@H]1c1ccc(F)cc1` [Talazoparib]: the percent of control binding at 10 µM amounted to 83% at CAMK4 (setting [2]); 83% on DMPK (setting [2]); 100% at GRK4 (setting [2]); 88% on IRAK1 (setting [2]); 93% at MAK (setting [2]); 99% at PCTK3 (setting [2]). Besides, the percent of control binding at 10 µM at PIK3CA(C420R) (setting [2]) was 100%; on PIK3CB (setting [2]), 100%; at PIK3CG (setting [2]), 62%; at ROCK1 (setting [2]) it was 100%; on TNIK (setting [2]) it was 98%.
For the compound `NC(=O)c1cccc2cn(-c3ccc([C@@H]4CCCNC4)cc3)nc12` [Niraparib], the percent of control binding at 10 µM at CAMK4 (setting [3]) was determined as 100%; at DMPK (setting [3]), 90%; at GRK4 (setting [3]) it was 62%; at IRAK1 (setting [3]), 18%; on MAK (setting [3]) it was 56%; at PCTK3 (setting [3]), 70%. Besides, the percent of control binding at 10 µM on PIK3CA(C420R) (setting [3]) stood at 98%; at PIK3CB (setting [3]) it was 100%; at PIK3CG (setting [3]) it was 100%; on ROCK1 (setting [3]), 61%; on TNIK (setting [3]) it was 86%.
Turning to `O=C(c1cc(Cc2n[nH]c(=O)c3ccccc23)ccc1F)N1CCN(C(=O)C2CC2)CC1` [Olaparib], the percent of control binding at 10 µM at CAMK4 (setting [4]) is 93%; at DMPK (setting [4]), 98%; on GRK4 (setting [4]) it was 91%; at IRAK1 (setting [4]) it was 82%; at MAK (setting [4]), 77%; at PCTK3 (setting [4]) it was 100%. The percent of control binding at 10 µM at PIK3CB (setting [4]) was 90%; at PIK3CG (setting [4]), 89%; at ROCK1 (setting [4]), 97%; at TNIK (setting [4]), 100%.
